Assay results as given in patent publication US11117900B2 (Vertex Pharmaceuticals Incorporated, priority 2012, dated 2021).

System: HCT116 colorectal cancer cells
Assay: Cisplatin sensitization assay (96 h MTS cell viability);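 further: compound concentration needed to lower the IC50 of Cisplatin alone by a set fold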
Format: cell-based
Conditions: Cisplatin sensitization value
Method: Compounds can be screened for their ability to sensitize HCT116 colorectal cancer cells to Cisplatin using a 96 h cell viability (MTS) assay. […] Compounds and Cisplatin are then both added simultaneously to the cell media in 2-fold serial dilutions from a top final concentration of 10 μM as a full matrix of concentrations in a final cell volume of 200 μl, and the cells are then incubated at 37° C. in 5% CO2. After 96 h, 40 μl of MTS reagent (Promega G358a) is added to each well and the cells are incubated for 1 h at 37° C. in 5% CO2.
Compounds with a Cisplatin sensitization value of <0.02 μM are marked with “+++.” Compounds with a Cisplatin sensitization value >0.02 μM but <0.2 μM are marked with “++.” Compounds with a Cisplatin sensitization value >0.2 μM but <5 μM are marked with “+.”

SMILES | Cisplatin Sensitization Assay
Nc1nn2cc(F)cnc2c1C(=O)Nc1cnccc1-c1ccncc1 [I-C-24, N-([4,4′-bipyridin]-3-yl)-2-amino-6-fluoropyrazolo[1,5-a]pyrimidine-3-carboxamide] | +++ (Compounds with a Cisplatin sensitization value of <0.02 μM are marked with “+++.”)
CN1CCN(C(=O)c2ccc(-c3ccncc3NC(=O)c3c(N)nn4cc(F)cnc34)cc2)CC1 [I-C-25, 2-amino-6-fluoro-N-(4-(4-(4-methylpiperazine-1-carbonyl)phenyl)pyridin-3-yl)pyrazolo[1,5-a]pyrimidine-3-carboxamide] | +++ (Compounds with a Cisplatin sensitization value of <0.02 μM are marked with “+++.”)
Nc1nn2cc(F)cnc2c1C(=O)Nc1cnccc1-c1ccnnc1 [I-C-26, 2-amino-6-fluoro-N-(4-(pyridazin-4-yl)pyridin-3-yl)pyrazolo[1,5-a]pyrimidine-3-carboxamide] | ++ (Compounds with a Cisplatin sensitization value >0.02 μM but <0.2 μM are marked with “++.”)
COc1ccc(-c2ccncc2NC(=O)c2c(N)nn3cc(F)cnc23)cn1 [I-C-27, 2-amino-6-fluoro-N-(6-methoxy-[3,4′-bipyridin]-3′-yl)pyrazolo[1,5-a]pyrimidine-3-carboxamide] | ++ (Compounds with a Cisplatin sensitization value >0.02 μM but <0.2 μM are marked with “++.”)
Cc1cnccc1-c1ccncc1NC(=O)c1c(N)nn2cc(F)cnc12 [I-C-29, 2-amino-6-fluoro-N-(3′-methyl-[4,4′-bipyridin]-3-yl)pyrazolo[1,5-a]pyrimidine-3-carboxamide] | +++ (Compounds with a Cisplatin sensitization value of <0.02 μM are marked with “+++.”)
Cc1ccncc1-c1ccncc1NC(=O)c1c(N)nn2cc(F)cnc12 [I-C-30, 2-amino-6-fluoro-N-(4-methyl-[3,4′-bipyridin]-3′-yl)pyrazolo[1,5-a]pyrimidine-3-carboxamide] | +++ (Compounds with a Cisplatin sensitization value of <0.02 μM are marked with “+++.”)
Cc1nnccc1-c1ccncc1NC(=O)c1c(N)nn2cc(F)cnc12 [I-C-31, 2-amino-6-fluoro-N-(4-(3-methylpyridazin-4-yl)pyridin-3-yl)pyrazolo[1,5-a]pyrimidine-3-carboxamide] | +++ (Compounds with a Cisplatin sensitization value of <0.02 μM are marked with “+++.”)
Cc1ccnnc1-c1ccncc1NC(=O)c1c(N)nn2cc(F)cnc12 [I-C-33, 2-amino-6-fluoro-N-(4-(4-methylpyridazin-3-yl)pyridin-3-yl)pyrazolo[1,5-a]pyrimidine-3-carboxamide] | + (Compounds with a Cisplatin sensitization value >0.2 μM but <5 μM are marked with “+.”)
Cc1nc(F)ccc1-c1ccncc1NC(=O)c1c(N)nn2cc(F)cnc12 [I-C-34, 2-amino-6-fluoro-N-(6-fluoro-2-methyl-[3,4′-bipyridin]-3′-yl)pyrazolo[1,5-a]pyrimidine-3-carboxamide] | +++ (Compounds with a Cisplatin sensitization value of <0.02 μM are marked with “+++.”)
Nc1nn2cc(F)cnc2c1C(=O)Nc1cnccc1-c1cccnc1F [I-C-35, 2-amino-6-fluoro-N-(2-fluoro-[3,4′-bipyridin]-3′-yl)pyrazolo[1,5-a]pyrimidine-3-carboxamide] | +++ (Compounds with a Cisplatin sensitization value of <0.02 μM are marked with “+++.”)
Cc1cccnc1-c1ccncc1NC(=O)c1c(N)nn2cc(F)cnc12 [I-C-36, 2-amino-6-fluoro-N-(3-methyl-[2,4′-bipyridin]-3′-yl)pyrazolo[1,5-a]pyrimidine-3-carboxamide] | +++ (Compounds with a Cisplatin sensitization value of <0.02 μM are marked with “+++.”)
Nc1nn2cc(F)cnc2c1C(=O)Nc1cnccc1-c1cccnc1Cl [I-C-37, 2-amino-N-(2-chloro-[3,4′-bipyridin]-3′-yl)-6-fluoropyrazolo[1,5-a]pyrimidine-3-carboxamide] | +++ (Compounds with a Cisplatin sensitization value of <0.02 μM are marked with “+++.”)
CN1CCC(C(=O)N2CC=C(c3c(F)cncc3NC(=O)c3c(N)nn4cc(F)cnc34)CC2)CC1 [I-C-38, 2-amino-6-fluoro-N-(5-fluoro-1′-(1-methylpiperidine-4-carbonyl)-1′,2′,3′,6′-tetrahydro-[4,4′-bipyridin]-3-yl)pyrazolo[1,5-a]pyrimidine-3-carboxamide] | ++ (Compounds with a Cisplatin sensitization value >0.02 μM but <0.2 μM are marked with “++.”)
Cc1nc(C(=O)N2CCN(C)CC2)ccc1-c1ccncc1NC(=O)c1c(N)nn2cc(F)cnc12 [I-C-39, 2-amino-6-fluoro-N-(2-methyl-6-(4-methylpiperazine-1-carbonyl)-[3,4′-bipyridin]-3′-yl)pyrazolo[1,5-a]pyrimidine-3-carboxamide] | +++ (Compounds with a Cisplatin sensitization value of <0.02 μM are marked with “+++.”)
Cc1nc(N2CCN(C)CC2)ccc1-c1ccncc1NC(=O)c1c(N)nn2cc(F)cnc12 [I-C-40, 2-amino-6-fluoro-N-(2-methyl-6-(4-methylpiperazin-1-yl)-[3,4′-bipyridin]-3′-yl)pyrazolo[1,5-a]pyrimidine-3-carboxamide] | +++ (Compounds with a Cisplatin sensitization value of <0.02 μM are marked with “+++.”)
Cc1nc(O[C@@H]2CCN(C)C2)ccc1-c1ccncc1NC(=O)c1c(N)nn2cc(F)cnc12 [I-C-41, (R)-2-amino-6-fluoro-N-(2-methyl-6-((1-methylpyrrolidin-3-yl)oxy)-[3,4′-bipyridin]-3′-yl)pyrazolo[1,5-a]pyrimidine-3-carboxamide] | +++ (Compounds with a Cisplatin sensitization value of <0.02 μM are marked with “+++.”)
Nc1nn2cc(F)cnc2c1C(=O)Nc1cnccc1C1CC1 [I-C-42, 2-amino-N-(4-cyclopropylpyridin-3-yl)-6-fluoropyrazolo[1,5-a]pyrimidine-3-carboxamide] | ++ (Compounds with a Cisplatin sensitization value >0.02 μM but <0.2 μM are marked with “++.”)
CN1CCN(C(=O)c2ccc(-c3c(F)cncc3NC(=O)c3c(N)nn4cc(F)cnc34)cc2)CC1 [I-C-43, 2-amino-6-fluoro-N-(5-fluoro-4-(4-(4-methylpiperazine-1-carbonyl)phenyl)pyridin-3-yl)pyrazolo[1,5-a]pyrimidine-3-carboxamide] | +++ (Compounds with a Cisplatin sensitization value of <0.02 μM are marked with “+++.”)
Nc1nn2cc(F)cnc2c1C(=O)Nc1cnccc1-c1ccc(C(=O)N2CCNCC2)cc1 [I-C-44, 2-amino-6-fluoro-N-(4-(4-(piperazine-1-carbonyl)phenyl)pyridin-3-yl)pyrazolo[1,5-a]pyrimidine-3-carboxamide] | +++ (Compounds with a Cisplatin sensitization value of <0.02 μM are marked with “+++.”)
Cc1cc(C(=O)N2CCN(C)CC2)ccc1-c1ccncc1NC(=O)c1c(N)nn2cc(F)cnc12 [I-C-45, 2-amino-6-fluoro-N-(4-(2-methyl-4-(4-methylpiperazine-1-carbonyl)phenyl)pyridin-3-yl)pyrazolo[1,5-a]pyrimidine-3-carboxamide] | +++ (Compounds with a Cisplatin sensitization value of <0.02 μM are marked with “+++.”)
CN1CCN(C(=O)c2cnc(-c3ccncc3NC(=O)c3c(N)nn4cc(F)cnc34)c(Cl)c2)CC1 [I-C-46, 2-amino-N-(3-chloro-5-(4-methylpiperazine-1-carbonyl)-[2,4′-bipyridin]-3′-yl)-6-fluoropyrazolo[1,5-a]pyrimidine-3-carboxamide] | + (Compounds with a Cisplatin sensitization value >0.2 μM but <5 μM are marked with “+.”)
Nc1nn2cc(F)cnc2c1C(=O)Nc1cnccc1C1CCN(S(=O)(=O)C2CC2)CC1 [I-C-47, 2-amino-N-(4-(1-(cyclopropylsulfonyl)piperidin-4-yl)pyridin-3-yl)-6-fluoropyrazolo[1,5-a]pyrimidine-3-carboxamide] | +++ (Compounds with a Cisplatin sensitization value of <0.02 μM are marked with “+++.”)
Nc1nn2cc(F)cnc2c1C(=O)Nc1cnccc1-c1ccc(C(=O)N2CCN3CCC2CC3)cc1 [I-C-48, N-(4-(4-(1,4-diazabicyclo[3.2.2]nonane-4-carbonyl)phenyl)pyridin-3-yl)-2-amino-6-fluoropyrazolo[1,5-a]pyrimidine-3-carboxamide] | +++ (Compounds with a Cisplatin sensitization value of <0.02 μM are marked with “+++.”)
Nc1nn2cc(F)cnc2c1C(=O)Nc1cnccc1-c1ccc(C(=O)N2CCN(C3COC3)CC2)cc1 [I-C-49, 2-amino-6-fluoro-N-(4-(4-(4-(oxetan-3-yl)piperazine-1-carbonyl)phenyl)pyridin-3-yl)pyrazolo[1,5-a]pyrimidine-3-carboxamide] | +++ (Compounds with a Cisplatin sensitization value of <0.02 μM are marked with “+++.”)
Nc1nn2cc(F)cnc2c1C(=O)Nc1cnccc1-c1ccc(C(=O)N2CCN3CCC2CC3)cc1F [I-C-50, N-(4-(4-(1,4-diazabicyclo[3.2.2]nonane-4-carbonyl)-2-fluorophenyl)pyridin-3-yl)-2-amino-6-fluoropyrazolo[1,5-a]pyrimidine-3-carboxamide] | +++ (Compounds with a Cisplatin sensitization value of <0.02 μM are marked with “+++.”)
Nc1nn2cc(F)cnc2c1C(=O)Nc1cnccc1-c1ccc(C(=O)N2CCN(C3COC3)CC2)cc1F [I-C-51, 2-amino-6-fluoro-N-(4-(2-fluoro-4-(4-(oxetan-3-yl)piperazine-1-carbonyl)phenyl)pyridin-3-yl)pyrazolo[1,5-a]pyrimidine-3-carboxamide] | ++ (Compounds with a Cisplatin sensitization value >0.02 μM but <0.2 μM are marked with “++.”)
